Source: ChEMBL document CHEMBL1201862, “PubChem BioAssay data set” (2004)
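Method: 48-hour compound exposure of cells in 96-well plates, five concentrations, linear interpolation of endpoints. GI50 marks 50% less growth.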 Activity calls are given as the source filed them. Cut-off read from the data, not from the text of the source: active = GI50 up to about 1.1 µM and inactive = higher. Positions of bridges follow the written chain, without caps; N, C: chain ends. Residues, ends and D or L forms follow the SMILES beside them. Peptide text beside a SMILES is read from it.

Columns and labels:
Assay in all cases: DTP human tumour cell line panel, 48 h
Malme-3M = test system: Malme-3M
OVCAR-3 = test system: OVCAR-3
HCT-116 = test system: HCT-116
SK-MEL-2 = test system: SK-MEL-2
HL-60 = test system: HL-60
UACC-62 = test system: UACC-62
CCRF-CEM = test system: CCRF-CEM
SF-268 = test system: SF-268
ACHN = test system: ACHN
NCI-H226 = test system: NCI-H226
SNB-19 = test system: SNB-19
IGROV-1 = test system: IGROV-1
HCT-15 = test system: HCT-15
DMS-114 = test system: DMS-114
A549 = test system: A549
HOP-62 = test system: HOP-62
OVCAR-4 = test system: OVCAR-4
MCF7 = test system: MCF7
MDA-MB-231 = test system: MDA-MB-231
MDA-MB-435 = test system: MDA-MB-435

Row | Structure (SMILES) | GI50 (Malme-3M) | GI50 (OVCAR-3) | GI50 (HCT-116) | GI50 (SK-MEL-2) | GI50 (HL-60) | GI50 (UACC-62) | GI50 (CCRF-CEM) | GI50 (SF-268) | GI50 (ACHN) | GI50 (NCI-H226) | GI50 (SNB-19) | GI50 (IGROV-1) | GI50 (HCT-15) [µM] | GI50 (DMS-114) | GI50 (A549) | GI50 (HOP-62) | GI50 (OVCAR-4) | GI50 (MCF7) | GI50 (MDA-MB-231) | GI50 (MDA-MB-435)
1 | CCOc1ccc(/C(C=O)=C(\Cl)c2ccc(OC)c(OC)c2)cc1 | > 100 µM (inactive) | > 100 µM (inactive) | > 100 µM (inactive) | > 100 µM (inactive) | 11.4 µM (inactive) | 68.9 µM (inactive) | > 100 µM (inactive) | 42.6 µM (inactive) | > 100 µM (inactive) | > 100 µM (inactive) | > 100 µM (inactive) | > 100 µM (inactive) | > 100 | > 100 µM (inactive) | – | – | – | – | – | –
2 | CCCCCCCCCCCCCCCCCC(=O)OCC(CN(C)CCN(C)C)OC(=O)CCCCCCCCCCCCCCCCC (stereo unspecified) | > 100 µM (inactive) | > 100 µM (inactive) | 55.2 µM (inactive) | > 100 µM (inactive) | – | > 100 µM (inactive) | 42.9 µM (inactive) | 45.3 µM (inactive) | 91.6 µM (inactive) | > 100 µM (inactive) | > 100 µM (inactive) | > 100 µM (inactive) | > 100 | 46.1 µM (inactive) | 55.3 µM (inactive) | > 100 µM (inactive) | > 100 µM (inactive) | – | – | –
3 | COC(=O)[C@@H]1C[C@@]23CCCN4CC[C@@]5(c6cccc(OC)c6N(C=O)[C@]15CC2)[C@@H]43 | > 100 µM (inactive) | > 100 µM (inactive) | > 100 µM (inactive) | > 100 µM (inactive) | > 100 µM (inactive) | > 100 µM (inactive) | > 100 µM (inactive) | > 100 µM (inactive) | > 100 µM (inactive) | > 100 µM (inactive) | > 100 µM (inactive) | > 100 µM (inactive) | > 100 | – | > 100 µM (inactive) | > 100 µM (inactive) | > 100 µM (inactive) | > 100 µM (inactive) | > 100 µM (inactive) | > 100 µM (inactive)
4 | C=C1C(=O)OC2CC(C)C(C(CC(C)=O)OC(C)=O)=CCC12 (stereo unspecified) | 2.02 µM (inactive) | 7.06 µM (inactive) | 1.79 µM (inactive) | 18 µM (inactive) | 3.25 µM (inactive) | 11.7 µM (inactive) | 2.61 µM (inactive) | 22.5 µM (inactive) | 9.27 µM (inactive) | 34.1 µM (inactive) | 36.6 µM (inactive) | 13.3 µM (inactive) | 2.75 | – | 28.2 µM (inactive) | 21 µM (inactive) | 17 µM (inactive) | 4.74 µM (inactive) | 13.5 µM (inactive) | 16.3 µM (inactive)
5 | CC(=O)N1[C@H](C(=O)O)CS[C@H]1c1ccncc1 | > 100 µM (inactive) | > 100 µM (inactive) | > 100 µM (inactive) | – | > 100 µM (inactive) | > 100 µM (inactive) | > 100 µM (inactive) | > 100 µM (inactive) | > 100 µM (inactive) | > 100 µM (inactive) | > 100 µM (inactive) | > 100 µM (inactive) | > 100 | > 100 µM (inactive) | > 100 µM (inactive) | > 100 µM (inactive) | > 100 µM (inactive) | – | – | –
6 | Cc1ccc(S(=O)(=O)OCOS(=O)(=O)c2ccc(C)cc2)cc1 | > 100 µM (inactive) | > 100 µM (inactive) | > 100 µM (inactive) | > 100 µM (inactive) | > 100 µM (inactive) | > 10 µM (inactive) | > 100 µM (inactive) | > 100 µM (inactive) | > 100 µM (inactive) | – | > 100 µM (inactive) | > 100 µM (inactive) | > 100 | > 100 µM (inactive) | > 100 µM (inactive) | > 100 µM (inactive) | – | – | – | –
7 | COc1ccc(N2C(=O)C3c4[nH]c5ccc(Br)cc5c4C4CCC(C(C)(C)C)CC4C3C2=O)cc1 (stereo unspecified) | 91.8 µM (inactive) | > 100 µM (inactive) | > 100 µM (inactive) | > 100 µM (inactive) | > 100 µM (inactive) | > 100 µM (inactive) | > 100 µM (inactive) | > 100 µM (inactive) | > 100 µM (inactive) | > 100 µM (inactive) | > 100 µM (inactive) | > 100 µM (inactive) | > 100 | – | > 100 µM (inactive) | > 100 µM (inactive) | > 100 µM (inactive) | > 100 µM (inactive) | 82 µM (inactive) | > 100 µM (inactive)
8 | CCOc1ccccc1C=C1c2ccccc2C(=O)c2ccccc21 | 8.15 µM (inactive) | 2.5 µM (inactive) | 4.63 µM (inactive) | 2.94 µM (inactive) | 2.99 µM (inactive) | 3.34 µM (inactive) | 4.32 µM (inactive) | 5.07 µM (inactive) | 8.63 µM (inactive) | – | 3.63 µM (inactive) | 3.58 µM (inactive) | 0.804 | 3.42 µM (inactive) | 5.16 µM (inactive) | 3.76 µM (inactive) | 22.1 µM (inactive) | – | – | –
9 | CN(C)C=[N+]=[N-] | > 100 µM (inactive) | > 100 µM (inactive) | > 100 µM (inactive) | > 100 µM (inactive) | > 100 µM (inactive) | > 100 µM (inactive) | – | > 100 µM (inactive) | > 100 µM (inactive) | > 100 µM (inactive) | > 100 µM (inactive) | > 100 µM (inactive) | > 100 | > 100 µM (inactive) | > 100 µM (inactive) | > 100 µM (inactive) | > 100 µM (inactive) | – | – | –
10 | CCOC(=O)Cc1ccc2c(c1O)C(=O)c1c(ccc(CC(=O)OCC)c1O)C2=O | 30.1 µM (inactive) | 47.8 µM (inactive) | > 100 µM (inactive) | > 100 µM (inactive) | > 100 µM (inactive) | > 100 µM (inactive) | 59 µM (inactive) | > 100 µM (inactive) | > 100 µM (inactive) | 43.5 µM (inactive) | > 100 µM (inactive) | – | – | > 100 µM (inactive) | > 100 µM (inactive) | > 100 µM (inactive) | – | – | – | –
11 | COc1ccccc1NC(=O)CC(=O)N1N=C(C)C(/N=N/c2ccc(S(N)(=O)=O)cc2)C1=O (stereo unspecified) | > 100 µM (inactive) | > 100 µM (inactive) | > 100 µM (inactive) | > 100 µM (inactive) | – | > 100 µM (inactive) | – | > 100 µM (inactive) | > 100 µM (inactive) | > 100 µM (inactive) | > 100 µM (inactive) | > 100 µM (inactive) | > 100 | > 100 µM (inactive) | > 100 µM (inactive) | > 100 µM (inactive) | > 100 µM (inactive) | – | – | –
12 | COc1cccc(NC(=O)CC(=O)N2N=C(N3c4ccccc4Sc4ccccc43)CC2c2ccccc2)c1 (stereo unspecified) | > 100 µM (inactive) | > 100 µM (inactive) | > 100 µM (inactive) | – | – | > 100 µM (inactive) | – | > 100 µM (inactive) | > 100 µM (inactive) | > 100 µM (inactive) | > 100 µM (inactive) | > 100 µM (inactive) | > 100 | > 100 µM (inactive) | > 100 µM (inactive) | > 100 µM (inactive) | > 100 µM (inactive) | – | – | –
13 | O=C(Nc1cc([N+](=O)[O-])cc([N+](=O)[O-])c1)OC1C2CCC1C1OC1C2 (stereo unspecified) | 22.9 µM (inactive) | 29.6 µM (inactive) | 35.8 µM (inactive) | > 50 µM (inactive) | 32.1 µM (inactive) | > 50 µM (inactive) | > 50 µM (inactive) | 33.7 µM (inactive) | > 50 µM (inactive) | – | > 50 µM (inactive) | > 50 µM (inactive) | > 50 | 30.5 µM (inactive) | > 50 µM (inactive) | > 50 µM (inactive) | > 50 µM (inactive) | – | – | –
14 | COC(=O)C1CCC(=O)NCCCCC(NC(=O)C(N)CC(=O)O)C(=O)N1 (stereo not drawn) (H-Asp-Lys-Glu-OMe; lactam 2-3; configuration not given here) | > 100 µM (inactive) | > 100 µM (inactive) | 60 µM (inactive) | > 100 µM (inactive) | 29.4 µM (inactive) | 28.2 µM (inactive) | 32.4 µM (inactive) | > 100 µM (inactive) | 41.2 µM (inactive) | > 100 µM (inactive) | > 100 µM (inactive) | > 100 µM (inactive) | > 100 | – | > 100 µM (inactive) | > 100 µM (inactive) | > 100 µM (inactive) | 62.7 µM (inactive) | > 100 µM (inactive) | > 100 µM (inactive)
15 | CCC(C)C(NC(=O)C(NC(=O)C(CC(N)=O)NC(=O)CN)C(C)O)C(=O)NC(C(=O)NC(C)C(=O)NC(C(=O)NC(CCC(=O)O)C(=O)NC(CC(C)C)C(=O)NC(CC(=O)O)C(=O)NC(C(=O)NC(Cc1ccc(O)cc1)C(=O)N1CCCC1C(=O)O)C(C)O)C(C)C)C(C)C (stereo unspecified) (H-GNTIVAVELDTYP-OH; configuration not given here) | > 50 µM (inactive) | > 50 µM (inactive) | > 50 µM (inactive) | > 50 µM (inactive) | > 50 µM (inactive) | > 50 µM (inactive) | > 50 µM (inactive) | > 50 µM (inactive) | > 50 µM (inactive) | > 50 µM (inactive) | > 50 µM (inactive) | > 50 µM (inactive) | > 50 | – | > 50 µM (inactive) | > 50 µM (inactive) | > 50 µM (inactive) | > 50 µM (inactive) | 18.9 µM (inactive) | > 50 µM (inactive)
16 | CCC(CO)Nc1nc(NCc2ccccc2)c2ncn(C(C)C)c2n1 (stereo not drawn) [(RS)-ROSCOVITINE] | 25.7 µM (inactive) | 9.23 µM (inactive) | 8.38 µM (inactive) | 20.7 µM (inactive) | 17.5 µM (inactive) | 12.8 µM (inactive) | 22.6 µM (inactive) | 13.7 µM (inactive) | 18.8 µM (inactive) | 15 µM (inactive) | 34.9 µM (inactive) | 14.8 µM (inactive) | 17.9 | – | 23.3 µM (inactive) | 11.9 µM (inactive) | 20.2 µM (inactive) | 15.7 µM (inactive) | 25.8 µM (inactive) | 23.4 µM (inactive)
